Results as given in patent US20250051324A1, “PARP INHIBITOR, PHARMACEUTICAL COMPOSITION COMPRISING SAME, AND USE THEREOF” (KEYTHERA (SUZHOU) BIO-PHARMACEUTICALS CO., LIMITED, priority 2021, published 2025).

Legend:
[1] = test system: UWB1.289 ovarian cancer cells; assay: Cell proliferation assay, UWB1.289; type: cell-based; settings: UWB1289, 168 h, read-out: UWB1.289 Cell IC50
Procedure, shortened: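 Cells seeded 16 h, then exposed to a 9-point 1:3 compound dilution series for 7 days at 37° C., 5% CO2; DMSO-matched and cell-free controls. Viability by CellCounting-Lite luminescence; IC50 from log concentration versus % inhibition.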

[2] = Evaluation of pharmacokinetics in mice; settings: male, ICR (CD1), mouse, plasma, po, 10 mg/kg

CNC(=O)c1ccc(N2CCN(Cc3cnc4c(C)c(C(F)(F)F)c(=O)[nH]c4c3)CC2)cn1 [Compound 1, N-methyl-5-(4-((8-methyl-6-oxo-7-(trifluoromethyl)-5,6-dihydro-1,5-naphthyridin-3-yl)methyl)piperazin-1-yl)picolinamide]
IC50 [1]: 0.66 nM | AUC(0-inf) [2]: 972 µg·h/mL | Cmax [2]: 39.6 µg/mL | half-life [2]: 17.9 h
